Experiments:
[1] = test system: MOLM14 D835Y cells; experiment: MOLM14 D835Y cell viability assay (Cell Titer Glo); type: cell-based; details: Homo sapiens, MOLM-14, 48 h, cell viability, Cell Titer Glo, 48 hours; read-out: MOLM14 D835Y IC50
Procedure, shortened: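 Luminescent ATP read-out (CellTiter-Glo, 15 min room temperature) taken 48 h after compound addition. Cells were MOLM14 carrying FLT3 D835Y or F691L mutations, plated at 1000 cells per well.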

[2] = biological target: T1, IRAK4 (Homo sapiens, UniProt Q9NWZ3); experiment: RBC HotSpot Kinase Assay, IRAK4; type: biochemical; parameters: purchased Reaction Biology (RBC HotSpot); details: isolated kinase enzyme, 33P-ATP, P81 filter-binding
T1 sequence (Q9NWZ3 1-460): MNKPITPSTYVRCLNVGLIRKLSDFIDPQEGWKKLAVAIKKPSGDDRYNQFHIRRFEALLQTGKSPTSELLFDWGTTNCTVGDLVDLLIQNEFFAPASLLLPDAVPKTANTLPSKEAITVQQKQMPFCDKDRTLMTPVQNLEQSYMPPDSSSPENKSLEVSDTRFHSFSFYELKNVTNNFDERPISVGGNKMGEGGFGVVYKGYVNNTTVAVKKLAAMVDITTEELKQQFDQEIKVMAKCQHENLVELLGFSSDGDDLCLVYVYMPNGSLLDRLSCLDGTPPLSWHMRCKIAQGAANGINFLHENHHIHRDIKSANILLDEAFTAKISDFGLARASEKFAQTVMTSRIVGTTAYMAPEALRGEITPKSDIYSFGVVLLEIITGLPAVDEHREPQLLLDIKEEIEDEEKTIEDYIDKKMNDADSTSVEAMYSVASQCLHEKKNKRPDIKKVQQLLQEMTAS
Procedure, shortened: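 Radiometric filter-binding activity assay with isolated recombinant kinase (construct may be truncated or catalytic domain only) in 20 mM Hepes pH 7.5, 10 mM MgCl2, 1 mM EGTA, 2 mM DTT, 1% DMSO. Compound preincubated 20 min with kinase/substrate; reaction started with 33P-ATP, run 2 h at room temperature.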

[3] = biological target: T2, FLT3 (Homo sapiens, UniProt P36888); experiment: RBC HotSpot Kinase Assay, FLT3; type: biochemical; parameters: purchased Reaction Biology (RBC HotSpot); details: isolated kinase enzyme, 33P-ATP, P81 filter-binding
T2 sequence (P36888 27-993): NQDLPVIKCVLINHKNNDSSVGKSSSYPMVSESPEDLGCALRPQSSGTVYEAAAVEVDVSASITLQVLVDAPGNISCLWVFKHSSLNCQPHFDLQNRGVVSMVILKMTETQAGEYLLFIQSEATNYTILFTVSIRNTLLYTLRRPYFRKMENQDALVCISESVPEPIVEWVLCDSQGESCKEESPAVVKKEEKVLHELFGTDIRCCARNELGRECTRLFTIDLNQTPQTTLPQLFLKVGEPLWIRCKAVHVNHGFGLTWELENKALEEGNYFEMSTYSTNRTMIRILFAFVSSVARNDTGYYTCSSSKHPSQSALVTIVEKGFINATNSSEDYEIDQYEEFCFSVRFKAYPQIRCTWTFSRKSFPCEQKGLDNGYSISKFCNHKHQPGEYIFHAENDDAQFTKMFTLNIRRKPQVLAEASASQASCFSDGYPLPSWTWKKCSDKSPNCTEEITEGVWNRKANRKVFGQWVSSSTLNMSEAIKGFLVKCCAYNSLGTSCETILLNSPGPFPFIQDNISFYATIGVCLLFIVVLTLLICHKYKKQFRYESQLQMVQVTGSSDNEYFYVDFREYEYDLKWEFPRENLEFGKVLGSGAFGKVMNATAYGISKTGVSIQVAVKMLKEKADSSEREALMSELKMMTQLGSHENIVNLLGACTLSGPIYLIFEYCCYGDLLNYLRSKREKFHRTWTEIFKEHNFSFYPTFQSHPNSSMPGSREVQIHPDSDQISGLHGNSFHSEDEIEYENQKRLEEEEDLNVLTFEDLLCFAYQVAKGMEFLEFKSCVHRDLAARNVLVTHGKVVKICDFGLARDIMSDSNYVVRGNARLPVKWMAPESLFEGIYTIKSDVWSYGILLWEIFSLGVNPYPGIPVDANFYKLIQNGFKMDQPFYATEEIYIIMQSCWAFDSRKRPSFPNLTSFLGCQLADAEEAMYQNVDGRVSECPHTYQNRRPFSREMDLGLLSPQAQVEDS
Procedure, shortened: (§1)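 Reactions ran in 20 mM Hepes (pH 7.5) containing 10 mM MgCl2, 1 mM EGTA, 0.1 mM Na3VO4, 2 mM DTT, 0.02 mg/ml BSA, 0.01% Brij35 and 1% DMSO, plus required cofactors. Functional activity readout on the expressible enzyme form, sometimes C-terminally truncated or lacking receptor regulatory regions.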

[4] = test system: MOLM14 F691L cells; experiment: MOLM14 F691L cell viability assay (Cell Titer Glo); type: cell-based; details: Homo sapiens, MOLM-14; cell viability, Cell Titer Glo, 48 hours; read-out: MOLM14 F691L IC50
Description: Both cell lines have activated FLT3 receptors, each of which carry additional resistance mutations in the kinase domain (D835Y and F691L, respectively).
For viability/cytotoxicity assessments, cells were seeded into 1536-well white polystyrene tissue culture-treated Greiner plates using a Multidrop Combi dispenser (ThermoFisher), in final volume 5 μL of growth media per well, at a density of 1000 cells per well. […] Plates were incubated for 48 hours at standard incubator conditions covered by a stainless steel gasketed lid to prevent evaporation. 48 hours post compound addition, 3 μL of Cell Titer Glo (Promega) were added to each well and plates were incubated at room temperature for 15 minutes with the stainless-steel lid in place. Luminescence readings were taken using a Viewlux imager (PerkinElmer) with a 2 second exposure time per plate.

[5] = biological target: T3, IRAK1 (Homo sapiens, UniProt P51617); experiment: RBC HotSpot Kinase Assay, IRAK1; type: biochemical; details: isolated kinase enzyme, 33P-ATP, P81 filter-binding
T3 construct: purchased Reaction Biology (RBC HotSpot)
Procedure, shortened: as §1

T3 sequence (P51617 whole entry): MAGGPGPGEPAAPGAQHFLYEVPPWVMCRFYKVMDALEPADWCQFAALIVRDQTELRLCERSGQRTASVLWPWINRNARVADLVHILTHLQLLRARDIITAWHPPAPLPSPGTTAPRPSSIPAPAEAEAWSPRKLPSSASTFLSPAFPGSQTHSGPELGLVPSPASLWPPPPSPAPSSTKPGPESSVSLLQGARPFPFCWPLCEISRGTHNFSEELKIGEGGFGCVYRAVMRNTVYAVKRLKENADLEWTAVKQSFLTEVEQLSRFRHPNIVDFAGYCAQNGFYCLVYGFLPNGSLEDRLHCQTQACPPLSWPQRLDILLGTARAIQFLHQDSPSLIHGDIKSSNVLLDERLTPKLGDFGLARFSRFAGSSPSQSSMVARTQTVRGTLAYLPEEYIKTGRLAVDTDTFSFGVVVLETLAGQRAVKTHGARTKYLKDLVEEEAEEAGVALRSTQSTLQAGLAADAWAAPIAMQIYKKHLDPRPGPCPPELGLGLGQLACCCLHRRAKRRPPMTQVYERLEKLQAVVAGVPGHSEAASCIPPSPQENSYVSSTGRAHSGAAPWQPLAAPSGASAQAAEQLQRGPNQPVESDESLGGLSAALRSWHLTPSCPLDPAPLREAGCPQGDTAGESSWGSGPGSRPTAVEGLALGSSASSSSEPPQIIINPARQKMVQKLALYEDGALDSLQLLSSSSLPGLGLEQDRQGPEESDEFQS

Compound | IC50 [1] [nM] | IC50 [2] [nM] | IC50 [3] [nM] | IC50 [4] [nM] | IC50 [5] [nM]
COc1cc2ncc(-c3ccnc(N[C@@H]4CCCNC4)n3)n2nc1C1CCCCC1 [Compound 87a, (R)-4-(6-cyclohexyl-7-methoxyimidazo[1,2-b]pyridazin-3-yl)-N-(piperidin-3-yl)pyrimidin-2-amine] | 28 | 3 | < 0.5 | 252 | 26
COc1cc2ncc(-c3ccnc(N[C@H]4CNCC[C@@H]4F)n3)n2nc1C1CCCCC1 [Compound 88a, 4-(6-cyclohexyl-7-methoxyimidazo[1,2-b]pyridazin-3-yl)-N-((3S,4S)-4-fluoropiperidin-3-yl)pyrimidin-2-amine] | 25 | 4 | < 0.5 | 179 | 13
COc1cc2ncc(-c3ccnc(N[C@H]4CNC[C@@H]4F)n3)n2nc1C12CC(C1)C2 [Compound 89a, 4-(6-(bicyclo[1.1.1]pentan-1-yl)-7-methoxyimidazo[1,2-b]pyridazin-3-yl)-N-((3S,4S)-4-fluoropyrrolidin-3-yl)pyrimidin-2-amine] | 18 | 4 | < 0.5 | 160 | 44
COc1cc2ncc(-c3ccnc(N[C@@H]4CCCNC4)n3)n2nc1C12CC(C1)C2 [Compound 90a, (R)-4-(6-(bicyclo[1.1.1]pentan-1-yl)-7-methoxyimidazo[1,2-b]pyridazin-3-yl)-N-(piperidin-3-yl)pyrimidin-2-amine] | 50 | 9 | < 0.5 | 449 | 85
COc1cc2ncc(-c3ccnc(N[C@H]4CNCC[C@@H]4F)n3)n2nc1C12CC(C1)C2 [Compound 91a, 4-(6-(bicyclo[1.1.1]pentan-1-yl)-7-methoxyimidazo[1,2-b]pyridazin-3-yl)-N-((3S,4S)-4-fluoropiperidin-3-yl)pyrimidin-2-amine] | 28 | 5 | < 0.5 | 283 | 45
COc1cc2ncc(-c3nc(N[C@H]4CNC[C@@H]4F)ncc3F)n2nc1C1COC1 [Compound 93a, 5-fluoro-N-((3S,4S)-4-fluoropyrrolidin-3-yl)-4-(7-methoxy-6-(oxetan-3-yl)imidazo[1,2-b]pyridazin-3-yl)pyrimidin-2-amine] | 13 | < 0.5 | < 0.5 | 142 | 5
COc1cc2ncc(-c3ccnc(N[C@H]4CNC[C@@H]4F)n3)n2nc1C1COC1 [Compound 95a, N-((3S,4S)-4-fluoropyrrolidin-3-yl)-4-(7-methoxy-6-(oxetan-3-yl)imidazo[1,2-b]pyridazin-3-yl)pyrimidin-2-amine] | 113 | 6 | 0.7 | 2000 | 300
COc1cc2ncc(-c3ccnc(N[C@@H]4CCCNC4)n3)n2nc1C1COC1 [Compound 96a, (R)-4-(7-methoxy-6-(oxetan-3-yl)imidazo[1,2-b]pyridazin-3-yl)-N-(piperidin-3-yl)pyrimidin-2-amine] | 16 | 62 | 0.5 | 160 | 1790
COc1cc2ncc(-c3ccnc(N[C@H]4CNCC[C@@H]4F)n3)n2nc1C1COC1 [Compound 97a, N-((3S,4S)-4-fluoropiperidin-3-yl)-4-(7-methoxy-6-(oxetan-3-yl)imidazo[1,2-b]pyridazin-3-yl)pyrimidin-2-amine] | 32 | 4 | 0.7 | 318 | 361
CC(C)(O)c1cn2c(-c3nc(N[C@H]4CNC[C@@H]4F)ncc3F)cnc2cn1 [Compound 98a, 2-(3-(5-fluoro-2-(((3S,4S)-4-fluoropyrrolidin-3-yl)amino)pyrimidin-4-yl)imidazo[1,2-a]pyrazin-6-yl)propan-2-ol] | 113 | 2 | 1 | 2520 | 46

From US20260226048A1, “MULTI-CYCLIC IRAK AND FLT3 INHIBITING COMPOUNDS AND USES THEREOF” (CHILDREN'S HOSPITAL MEDICAL CENTER, priority 2023, published 2026)
